Source: ChEMBL document CHEMBL1201862, “PubChem BioAssay data set” (2004)
Active and inactive are the calls of the source.

Tests used:
Cytochrome P450 2C19 = Cytochrome P450 2C19 (Homo sapiens, UniProt P33261); test: Cytochrome panel assay with activity outcomes. Panel member name: p450-cyp2c19 Compounds with AC50 equal or less than 10 uM are considered active; format: functional; conditions: read-out: AC50
Cytochrome P450 3A4 = Cytochrome P450 3A4 (Homo sapiens, UniProt P08684);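 also: CYP3A4 tested as one member of a cytochrome P450 panel screen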
[1] = target: T1, Heat shock factor protein 1 (Mus musculus, UniProt P38532); test: HSF1 potentiators in luciferase reporter cells, confirmation, cell-based, NIH3T3, luminescence, dose retest (AID 435004); format: functional;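 also: stress induced by proteasome inhibitor MG132 added 30 min after compound; luciferase reporter driven by HSF1 response element in NIH3T3 cells; actives raise luminescence as potentiators of the MG132 stress response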
T1 sequence (P38532 whole entry): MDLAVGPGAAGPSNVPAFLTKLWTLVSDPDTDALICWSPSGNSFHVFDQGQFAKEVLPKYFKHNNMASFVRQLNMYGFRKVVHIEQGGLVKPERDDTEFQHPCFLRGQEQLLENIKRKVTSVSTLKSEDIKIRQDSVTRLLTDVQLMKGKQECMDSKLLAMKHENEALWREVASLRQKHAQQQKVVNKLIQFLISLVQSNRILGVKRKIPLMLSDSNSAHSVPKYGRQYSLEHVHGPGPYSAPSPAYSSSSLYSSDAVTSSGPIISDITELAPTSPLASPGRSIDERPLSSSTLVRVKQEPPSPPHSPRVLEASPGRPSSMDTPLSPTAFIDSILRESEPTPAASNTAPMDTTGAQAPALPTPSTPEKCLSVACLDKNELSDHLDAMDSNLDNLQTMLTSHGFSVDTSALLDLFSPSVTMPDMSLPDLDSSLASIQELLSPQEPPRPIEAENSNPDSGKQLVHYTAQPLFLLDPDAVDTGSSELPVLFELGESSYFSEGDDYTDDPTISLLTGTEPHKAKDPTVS

Cytochrome P450 2C9 = Cytochrome P450 2C9 (Homo sapiens, UniProt P11712)
[2] = target: T2, Corticotropin-releasing factor receptor 2/Corticotropin-releasing factor-binding protein (Homo sapiens, UniProt P24387+Q13324); test: activators of CRF receptor 2 with binding protein – uHTS hits, confirmation (AID 602473); format: functional; conditions: read-out: EC50_Mean
T2 sequence (Q13324 whole entry): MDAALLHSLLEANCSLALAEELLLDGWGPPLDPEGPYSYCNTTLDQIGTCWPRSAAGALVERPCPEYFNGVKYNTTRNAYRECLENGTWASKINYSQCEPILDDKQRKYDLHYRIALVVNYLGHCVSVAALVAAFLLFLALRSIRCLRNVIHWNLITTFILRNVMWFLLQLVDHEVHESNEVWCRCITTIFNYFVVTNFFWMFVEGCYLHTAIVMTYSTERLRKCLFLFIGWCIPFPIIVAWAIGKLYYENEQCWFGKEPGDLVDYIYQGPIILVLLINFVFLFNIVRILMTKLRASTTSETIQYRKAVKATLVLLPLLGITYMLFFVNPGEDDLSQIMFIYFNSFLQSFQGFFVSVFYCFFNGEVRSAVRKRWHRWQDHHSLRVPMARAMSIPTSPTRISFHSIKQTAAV
T2 sequence (P24387 whole entry): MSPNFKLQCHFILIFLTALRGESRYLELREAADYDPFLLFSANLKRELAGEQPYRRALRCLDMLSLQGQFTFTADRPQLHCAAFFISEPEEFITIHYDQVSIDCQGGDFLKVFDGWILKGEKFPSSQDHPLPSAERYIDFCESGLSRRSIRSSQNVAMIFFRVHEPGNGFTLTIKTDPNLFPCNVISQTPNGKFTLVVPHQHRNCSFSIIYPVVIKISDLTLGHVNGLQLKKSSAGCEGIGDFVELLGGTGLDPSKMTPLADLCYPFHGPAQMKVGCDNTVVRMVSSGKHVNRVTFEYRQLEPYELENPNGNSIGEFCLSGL

[3] = target: T2, Corticotropin-releasing factor receptor 2/Corticotropin-releasing factor-binding protein; test: Dose Response confirmation of uHTS hits for small molecule antagonists of the CRF-binding protein and CRF-R2 receptor complex.; format: functional; conditions: read-out: IC50_Mean
Cytochrome P450 1A2 = target: T3, Cytochrome P450 1A2 (Homo sapiens, UniProt P05177);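 also: PubChem cytochrome P450 panel assay, CYP1A2 panel member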
T3 sequence (P05177 whole entry): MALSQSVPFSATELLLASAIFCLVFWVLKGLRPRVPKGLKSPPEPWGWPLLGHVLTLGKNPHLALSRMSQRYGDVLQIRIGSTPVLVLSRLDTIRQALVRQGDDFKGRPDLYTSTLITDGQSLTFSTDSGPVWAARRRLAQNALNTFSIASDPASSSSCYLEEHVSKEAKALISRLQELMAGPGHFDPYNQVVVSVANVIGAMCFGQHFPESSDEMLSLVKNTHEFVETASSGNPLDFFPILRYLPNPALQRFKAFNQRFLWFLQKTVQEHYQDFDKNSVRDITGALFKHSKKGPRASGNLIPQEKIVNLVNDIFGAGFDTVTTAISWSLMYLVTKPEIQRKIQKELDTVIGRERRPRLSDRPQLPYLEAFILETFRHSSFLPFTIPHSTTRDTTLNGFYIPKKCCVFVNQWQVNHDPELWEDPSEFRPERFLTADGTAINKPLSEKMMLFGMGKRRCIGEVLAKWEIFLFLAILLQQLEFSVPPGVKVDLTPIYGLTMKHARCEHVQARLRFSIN

INS1 = test: beta cell apoptosis inhibitors, cytokine rescue, dose response, luminescence, retest (AID 449756); format: functional, cell-based; conditions: Rattus norvegicus;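 also: cell death triggered by IL-1 beta plus TNF-alpha plus IFN-gamma mixture; protective hits raise ATP signal compared with cytokine alone wells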
[4] = Luminescence Cell-Based Dose Response HTS to Identify Inhibitors of 5'UTR Stem-Loop Driven Prion Protein mRNA Translation in H4 Neuroglioblastoma Cells. [Related pubchem assays: 1827 (Project Summary), 1813 (Primary HTS)]; format: functional
[5] = inhibitors of firefly luciferase expression or activity, dose response, H4 neuroglioma cells, luminescence (AID 1990); format: functional, cell-based
[6] = inhibitors of SNCA 5'UTR-driven reporter translation, confirmation, H4 neuroglioma cells, luminescence (AID 1988); format: functional, cell-based
[7] = cytotoxicity toward NIH3T3 fibroblasts, dose response, counter-screen, cell-based, ATP luminescence, mouse fibroblasts (AID 2010); format: functional;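 also: cells exposed to compound for about 90 hours before reading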
[8] = inhibitors of intracellular T. cruzi replication, confirmation, NIH3T3 host cells, beta-gal luminescence (AID 2044); format: functional, cell-based;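 also: intracellular parasites grown in NIH/3T3 mouse fibroblasts as host cells; luminescent beta-galactosidase reporter signal from transgenic T. cruzi replicating inside host cells; inhibitors lower the luminescence signal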

Sequence of Cytochrome P450 3A4 (P08684 whole entry): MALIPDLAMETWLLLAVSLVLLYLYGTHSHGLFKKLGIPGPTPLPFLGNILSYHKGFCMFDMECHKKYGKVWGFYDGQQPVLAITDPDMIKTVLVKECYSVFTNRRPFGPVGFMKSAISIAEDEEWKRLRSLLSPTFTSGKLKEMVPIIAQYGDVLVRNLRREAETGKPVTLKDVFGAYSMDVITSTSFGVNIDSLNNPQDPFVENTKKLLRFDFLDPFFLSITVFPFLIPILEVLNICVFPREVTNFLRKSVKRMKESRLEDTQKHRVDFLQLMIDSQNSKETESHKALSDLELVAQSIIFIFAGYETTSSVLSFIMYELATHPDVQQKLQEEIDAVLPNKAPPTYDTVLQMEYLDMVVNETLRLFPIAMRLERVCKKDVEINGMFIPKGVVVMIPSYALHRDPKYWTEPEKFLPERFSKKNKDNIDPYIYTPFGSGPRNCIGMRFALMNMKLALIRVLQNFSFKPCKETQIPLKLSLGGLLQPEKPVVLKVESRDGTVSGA
Sequence of Cytochrome P450 2C19 (P33261 whole entry): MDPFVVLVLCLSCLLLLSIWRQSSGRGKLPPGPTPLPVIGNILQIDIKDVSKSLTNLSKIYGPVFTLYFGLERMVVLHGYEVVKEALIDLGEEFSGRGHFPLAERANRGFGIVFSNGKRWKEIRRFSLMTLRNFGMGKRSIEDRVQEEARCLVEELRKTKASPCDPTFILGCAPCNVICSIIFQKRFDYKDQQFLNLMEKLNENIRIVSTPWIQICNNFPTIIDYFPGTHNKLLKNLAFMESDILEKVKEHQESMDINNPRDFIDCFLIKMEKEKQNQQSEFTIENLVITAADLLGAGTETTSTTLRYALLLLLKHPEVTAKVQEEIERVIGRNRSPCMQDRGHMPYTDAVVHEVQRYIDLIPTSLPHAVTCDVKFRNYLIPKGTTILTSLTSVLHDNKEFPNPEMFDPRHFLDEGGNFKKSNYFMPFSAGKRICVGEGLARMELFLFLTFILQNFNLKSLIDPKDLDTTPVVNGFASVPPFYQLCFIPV
Sequence of Cytochrome P450 2C9 (P11712 whole entry): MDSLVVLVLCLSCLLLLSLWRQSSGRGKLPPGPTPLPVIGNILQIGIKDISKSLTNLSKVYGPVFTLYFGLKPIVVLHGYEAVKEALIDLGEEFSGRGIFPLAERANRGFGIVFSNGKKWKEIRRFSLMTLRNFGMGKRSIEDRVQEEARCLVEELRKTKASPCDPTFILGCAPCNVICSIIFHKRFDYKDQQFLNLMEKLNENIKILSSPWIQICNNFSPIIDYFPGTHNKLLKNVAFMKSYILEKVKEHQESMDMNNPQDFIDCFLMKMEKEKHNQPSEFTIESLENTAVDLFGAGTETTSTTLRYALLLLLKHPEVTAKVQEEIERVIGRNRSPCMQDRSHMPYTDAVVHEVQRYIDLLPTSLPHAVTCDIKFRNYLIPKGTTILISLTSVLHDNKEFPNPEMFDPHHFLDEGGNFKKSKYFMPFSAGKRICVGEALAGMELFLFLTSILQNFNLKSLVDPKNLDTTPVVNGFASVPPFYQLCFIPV

Structure (SMILES): CCCn1nc(NC(=O)CC(C)C)c2cc3ccccc3nc21
- AC50 (Cytochrome P450 2C19): 7.94 µM (inconclusive)
- AC50 (Cytochrome P450 3A4): 3.16 µM (inconclusive)

Structure (SMILES): COCCOC(=O)C1=C(C)N=C(C)/C(=C(/O)OCCOC)C1/C=C/c1ccccc1OC (stereo unspecified)
- EC50 [1]: 45.7 µM (active)

Structure (SMILES): COc1ccc(Cl)cc1NC(=O)CCc1nc(-c2ccccc2F)no1
- EC50 [1]: > 260 µM (inactive)

Structure (SMILES): N=c1sc2ccccc2n1CC[S-].c1ccc2c(c1)sc1[n+]2CCS1
- AC50 (Cytochrome P450 2C9): 1.58 µM (inconclusive)
- AC50 (Cytochrome P450 3A4): 3.16 µM (inconclusive)

Structure (SMILES): COc1ccc(NC(=O)Nc2ccc3c(c2)OCO3)c(C)c1
- EC50 [2]: > 53 µM (inactive)
- IC50 [3]: > 47.1 µM (inactive)

Structure (SMILES): COc1ccc(N2CCN(C(=O)CSc3nnc4c5cc(C)ccc5n(C)c4n3)CC2)cc1
- AC50 (Cytochrome P450 2C9): 2.51 µM (inconclusive)
- AC50 (Cytochrome P450 1A2): 5.62 µM (inconclusive)
- AC50 (Cytochrome P450 3A4): 1.12 µM (inconclusive)

Structure (SMILES): Cc1cc(NC(=O)Cn2cnc3sc(C)c(-c4ccccc4)c3c2=O)no1
- EC50 [1]: > 260 µM (inactive)

Structure (SMILES): COc1ccccc1CC(=O)O/N=C(\N)c1cccc([N+](=O)[O-])c1
- AC50 (Cytochrome P450 2C19): 20 µM (inconclusive)
- AC50 (Cytochrome P450 2C9): 22.4 µM (inconclusive)
- AC50 (Cytochrome P450 1A2): 25.1 µM (inconclusive)
- AC50 (Cytochrome P450 3A4): 31.6 µM (inconclusive)

Structure (SMILES): O=C(CCCN1CCC2(CC1)C(=O)N(Cc1cccc(F)c1)CN2c1ccccc1)c1ccc(F)cc1
- AC50 (Cytochrome P450 2C19): 7.94 µM (inconclusive)
- AC50 (Cytochrome P450 1A2): 39.8 µM (inconclusive)
- AC50 (Cytochrome P450 3A4): 31.6 µM (inconclusive)

Structure (SMILES): Cc1nnc(NC(=O)C2CCCN(c3ncccn3)C2)s1 (stereo unspecified)
- EC50 [2]: > 53 µM (inactive)
- IC50 [3]: > 47.1 µM (inactive)

Structure (SMILES): N=c1c2c(ncn1CCCO)Oc1ccc3ccccc3c1C2c1ccccc1 (stereo unspecified)
- AC50 (INS1): 24.4 µM (active)

Structure (SMILES): Cc1ccc(OCCOC(=O)Cn2nc(C)c([N+](=O)[O-])c2C)cc1
- EC50 [2]: > 53 µM (inactive)
- IC50 [3]: > 47.1 µM (inactive)

Structure (SMILES): COCCn1c(=O)c(-c2ccc(Cl)cc2)nc2cnc(Oc3ccccc3)nc21
- AC50 (Cytochrome P450 2C19): 39.8 µM (inconclusive)
- AC50 (Cytochrome P450 3A4): 25.1 µM (inconclusive)

Structure (SMILES): CN(CC1CCCO1)S(=O)(=O)c1ccc(C(=O)Nc2nc(-c3ccccn3)cs2)cc1 (stereo unspecified)
- AC50 (INS1): 2.42 µM (active)

Structure (SMILES): Cc1nnc(NC(=O)c2oc3c(ccc4ccccc43)c2C)s1
- AC50 (Cytochrome P450 2C9): 17.8 µM (inconclusive)
- AC50 (Cytochrome P450 3A4): 12.6 µM (inconclusive)

Structure (SMILES): CCc1ccc(-c2cc(C(F)(F)F)n3nc(C(=O)Nc4cnn(Cc5ccccc5C)c4)cc3n2)s1
- AC50 (Cytochrome P450 3A4): 3.16 µM (inconclusive)

Structure (SMILES): Cc1cc(C)nc(OC(=O)c2ccc(Cl)cc2Cl)n1
- AC50 (INS1): 84.3 µM (active)
- EC50 [4]: > 120 µM (not active)
- EC50 [5]: 11.4 µM (active)
- EC50 [6]: 10.9 µM (active)

Structure (SMILES): CCN(CCCNC(=O)COc1cc(=O)n(C)c2ccccc12)c1cccc(C)c1
- EC50 [1]: > 260 µM (inactive)

Structure (SMILES): O=C(CSc1nnc2c(Cl)cc(C(F)(F)F)cn12)N(Cc1ccccc1)Cc1ccccc1
- EC50 [1]: > 260 µM (inactive)

Structure (SMILES): CSc1ccc(CNc2ccccc2)cc1
- AC50 (Cytochrome P450 3A4): 35.5 µM (inconclusive)

Structure (SMILES): Cc1ccccc1Cn1nc(C)c(NC(=O)C2c3ccccc3Oc3ccccc32)c1C
- EC50 [1]: > 260 µM (inactive)

Structure (SMILES): O=C(NC(=S)NCCc1ccccn1)c1ccco1
- EC50 [2]: > 53 µM (inactive)
- IC50 [3]: > 47.1 µM (inactive)

Structure (SMILES): Cc1cc(O)c(C2(O)C(=O)Nc3cc(Br)ccc32)cc1C (stereo unspecified)
- EC50 [2]: > 53 µM (inactive)
- IC50 [3]: > 47.1 µM (inactive)

Structure (SMILES): COc1ccc(C2Nc3ccccc3C(=O)N2NS(=O)(=O)c2ccc(C)cc2)cc1 (stereo unspecified)
- EC50 [1]: > 260 µM (inactive)

Structure (SMILES): CC(C)(C)CC(C)(C)c1ccc(OCOCCOCCO)c(Cc2cc(C(C)(C)CC(C)(C)C)cc(Cc3cc(C(C)(C)CC(C)(C)C)ccc3OCOCCOCCO)c2OCOCCOCCO)c1
- AC50 (Cytochrome P450 3A4): 12.6 µM (inconclusive)

Structure (SMILES): O=C([O-])c1cc(-c2ccccc2)cc(-c2ccccc2)[n+]1Cc1ccccc1
- AC50 (INS1): 1.96 µM (active)

Structure (SMILES): O=C(O)CCn1[nH]c(=O)ccc1=O
- EC50 [1]: > 260 µM (inactive)

Structure (SMILES): Cc1[nH]c2c(ccc3ccccc32)c1C1C(CCN)C1(C)C (stereo unspecified)
- EC50 [7]: 13.2 µM (active)
- AC50 (INS1): 15.1 µM (active)
- EC50 [8]: 2.56 µM (active)

Structure (SMILES): COc1ccccc1NC(=O)Nc1nnc(-c2ccco2)s1
- AC50 (Cytochrome P450 3A4): 17.8 µM (inconclusive)

Structure (SMILES): Cc1cccc(C)c1OCC(=O)Nc1oc(-c2ccccc2)c(-c2ccccc2)c1C#N
- EC50 [2]: > 53 µM (inactive)
- IC50 [3]: > 47.1 µM (inactive)

Structure (SMILES): CCn1c(SC)nnc1C1CCCN(CC(=O)Nc2ccccc2N2CCOCC2)C1 (stereo unspecified)
- EC50 [1]: > 260 µM (inactive)

Structure (SMILES): CCC1CCC2(CC1)SCC(=O)N2c1ccccc1 (stereo unspecified)
- EC50 [1]: > 260 µM (inactive)

Structure (SMILES): CCCSc1nnc2n(N)c(=O)c3ccccc3n12
- AC50 (Cytochrome P450 3A4): 28.2 µM (inconclusive)

Structure (SMILES): COc1ccc(-n2ncc(C(C)NS(=O)(=O)c3cc(C)sc3C)c2C)cc1 (stereo unspecified)
- EC50 [2]: > 53 µM (inactive)
- IC50 [3]: > 47.1 µM (inactive)

Structure (SMILES): Cn1c(C(=O)NCCc2ccccc2)cc(=O)n(C)c1=O
- EC50 [2]: > 53 µM (inactive)
- IC50 [3]: > 47.1 µM (inactive)

Structure (SMILES): C=CCN1C(=O)C(Cc2ccc(OCC)cc2)S/C1=N/c1ccc(C(=O)O)cc1 (stereo unspecified)
- EC50 [1]: > 260 µM (inactive)

Structure (SMILES): Cc1c(/N=C2\SCC(=O)N2/N=C\c2ccc(Br)cc2)c(=O)n(-c2ccccc2)n1C
- EC50 [1]: > 260 µM (inactive)

Structure (SMILES): Cc1ccc(N2C(=O)c3sc4nnc(C)c(=O)n4c3C2=O)cc1
- EC50 [2]: > 53 µM (inactive)
- IC50 [3]: > 47.1 µM (inactive)

Structure (SMILES): CCCCCCCC/C=C\CCCCCCCC(N)=O [OLEAMIDE]
- AC50 (Cytochrome P450 2C19): 31.6 µM (inconclusive)
- AC50 (Cytochrome P450 3A4): 50.1 µM (inconclusive)

Structure (SMILES): COc1ccc2c(OC)c3ccoc3nc2c1OC [SKIMMIANINE]
- AC50 (Cytochrome P450 3A4): 7.94 µM (inconclusive)
